{"source": "patent US8093210B2", "about": "“Treatment of sepsis with 5-ethyl-1-phenyl-2(1H)-pyridone” (Solanan, Inc., priority 2008, dated 2012)", "tested_on": "TNF-α", "test": "Serum TNF-α (ELISA) in LPS/D-galactosamine model of sepsis (Example 5)", "format": "in vivo, mice", "conditions": "90 minutes after the treatment", "procedure": "Mice were treated simultaneously with LPS (10 μg/kg) and D-galactosamine (600 mg/kg) (Galanos C, Freudenberg M A, Reutter W. […] They were anesthetized with halothane and blood was collected at different times by cardiac puncture and centrifuged to separate serum. The serum levels of alanine transaminase (ALT) and aspartate transaminase (AST) were measured by a commercial diagnostic company (Idexx Laboratories). The serum levels of tumor necrosis factor-alpha (TNF-α), interleukin-6 (IL-6) and interleukin-12 (IL-12) were determined by commercially available mouse enzyme-linked immunosorbent assay (ELISA) kits (BD BioSciences, San Jose, Calif.).\nThe methodology utilized in Example 4 was used to measure and analyze the serum enzyme data for statistical significance. The serum levels of proinflammatory cytokines between the 5-EPP treated and saline control groups were analyzed for statistical significance by one-way ANOVA and a Tukey's multiple comparison test (Prism™ for Windows 4.02, Graphpad Software, Inc. San Diego, Calif.)."}
{"smiles": "CCc1ccc(=O)n(-c2ccccc2)c1", "note": "[5-EPP, 5-ethyl-1-phenyl-2-(1H)-pyridone]", "values": [{"measurement": "serum level of TNF-α", "setting": "12.5 mg/kg", "result": "5,220 ± 1280 pg/mL"}, {"measurement": "serum level of TNF-α", "setting": "25 mg/kg", "result": "2,780 ± 481 pg/mL"}, {"measurement": "serum level of TNF-α", "setting": "50 mg/kg", "result": "576 ± 79", "unit": "pg/mL"}, {"measurement": "serum level of TNF-α", "setting": "100 mg/kg", "result": "340 ± 34", "unit": "pg/mL"}]}
